ChEMBL document CHEMBL1201862, “PubChem BioAssay data set” (2004)
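Cultured in 96-well plates, cells were exposed to test compound for 48 hours across five concentrations. GI50 marks 50% less growth.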 Active and inactive are the calls of the source. Cut-off read from the data, not from the text of the source: active = GI50 up to about 1.1 µM and inactive = higher.

Assays:
Test in all cases: NCI-60 cell line screen, 48 h
SW-620 = test system: SW-620
NCI/ADR-RES = test system: NCI/ADR-RES
Hs-578T = test system: Hs-578T
RXF 393 = test system: RXF 393
NCI-H460 = test system: NCI-H460
HL-60 = test system: HL-60
SR = test system: SR
786-0 = test system: 786-0
UO-31 = test system: UO-31
LOX IMVI = test system: LOX IMVI
MCF7 = test system: MCF7
SK-MEL-5 = test system: SK-MEL-5
OVCAR-3 = test system: OVCAR-3
HCC 2998 = test system: HCC 2998
SN12C = test system: SN12C
EKVX = test system: EKVX
SNB-75 = test system: SNB-75
SF-539 = test system: SF-539
A549 = test system: A549
SK-MEL-2 = test system: SK-MEL-2

Measured: GI50

CCOCc1c(C)cc(C)c(C2C(C(=O)c3ccccc3)N3c4ccccc4C=CC3C2(C#N)C(=O)OCC)c1C (stereo not drawn)
inactive: SW-620 67.3 µM | NCI/ADR-RES 33.7 µM | Hs-578T > 100 µM | RXF 393 46 µM | NCI-H460 27.9 µM | HL-60 > 100 µM | SR 82.8 µM | 786-0 45 µM | UO-31 49.1 µM | LOX IMVI 35.9 µM | MCF7 24.8 µM | SK-MEL-5 14.8 µM | OVCAR-3 17.4 µM | HCC 2998 18.1 µM | SN12C 61.5 µM | EKVX 16.1 µM

CC(=O)N(O)[C@@H]1CC[C@H](n2cnc3c(N)ncnc32)C1
inactive: SW-620 > 100 µM | NCI/ADR-RES > 100 µM | SNB-75 > 100 µM | Hs-578T > 100 µM | RXF 393 > 100 µM | NCI-H460 > 100 µM | SR > 100 µM | 786-0 > 100 µM | UO-31 > 100 µM | LOX IMVI > 100 µM | MCF7 > 100 µM | SK-MEL-5 > 100 µM | SF-539 > 100 µM | A549 > 100 µM | OVCAR-3 > 100 µM | HCC 2998 > 100 µM | SK-MEL-2 > 100 µM | SN12C > 100 µM | EKVX > 100 µM

CC1(C)[C@@H]2C[C@H]1c1cnc(-c3ccccn3)cc1C2[C@@H]1c2cc(-c3ccccn3)ncc2[C@@H]2C[C@H]1C2(C)C (stereo partly drawn)
inactive: SW-620 84.3 µM | NCI/ADR-RES 37.7 µM | SNB-75 55.8 µM | Hs-578T > 100 µM | RXF 393 > 100 µM | NCI-H460 2.77 µM | HL-60 36.4 µM | SR 62.8 µM | 786-0 86.1 µM | UO-31 24.3 µM | LOX IMVI > 100 µM | MCF7 53 µM | SK-MEL-5 49.7 µM | A549 30.3 µM | OVCAR-3 43.6 µM | HCC 2998 45.7 µM | SK-MEL-2 68.9 µM | SN12C 97.5 µM | EKVX > 100 µM

COc1ccc(CNc2nc3ccccc3nc2C(=O)O)cc1OC
inactive: SW-620 > 100 µM | NCI/ADR-RES 26.7 µM | SNB-75 > 100 µM | Hs-578T > 100 µM | RXF 393 > 100 µM | NCI-H460 > 100 µM | HL-60 > 100 µM | SR > 100 µM | 786-0 > 100 µM | UO-31 36.5 µM | LOX IMVI > 100 µM | MCF7 > 100 µM | SK-MEL-5 > 100 µM | SF-539 > 100 µM | A549 > 100 µM | OVCAR-3 > 100 µM | HCC 2998 > 100 µM | SN12C 91.6 µM | EKVX > 100 µM
